Measurements as given in patent publication EP1561465A2, “Methods of use of fluoroquinolone compounds against bacteria” (LG Life Sciences, Ltd., priority 1999, dated 2001).
Converted amounts (≈) assume the structure as drawn. “And” between values parts separate entries of the source, which are not always exact repeats. Equal entries are not always repeated. Where two headings read alike, the source gives them in different places.

What was measured:
Pseudomonas aeruginosa = experiment: MIC by agar dilution (NCCLS), 322 nosocomial Gram negative isolates, Athens 1998; format: cell-based; conditions: n = 57 isolates
Enterobacter spp. = experiment: as above; format: cell-based; conditions: Enterobacter, n = 57 isolates
Klebsiella pneumoniae = experiment: as above; format: cell-based; conditions: Klebsiella pneumoniae; n = 56 isolates
Acinetobacter spp. = experiment: as above; format: cell-based; conditions: Acinetobacter; n = 38 strains
Proteus mirabilis = experiment: as above; format: cell-based; conditions: Proteus mirabilis; n = 57 isolates
Aeromonas spp. [1] = experiment: MIC by agar dilution (NCCLS M7-A4), 288 enteropathogenic isolates, gemifloxacin and 15 other antimicrobials; format: cell-based; conditions: for MIC: Aeromonas
Hafnia alvei [2] = experiment: as above; format: cell-based; conditions: Hafnia alvei
Shigella spp. [3] = experiment: as above; format: cell-based; conditions: Shigella spp. N= 21
Procedure: [A. hydrophila (12), and A. sobria (4)], and 91 Campylobacter jejuni. […] The strains were stored in skimmed-milk at -80 °C until studied.
The plates were incubated aerobically at 35 °C for 24 h, except for Campylobacter jejuni, where a microaerophilic atmosphere was obtained by using Campy Pack (Becton Dickinson, Cockeysville, MD, USA), and incubation was for 48 h. All organisms were tested with an inoculum of ≅ 10^4 cfu/spot. MICs were defined as the lower antibiotic concentration with no visible growth.

Campylobacter jejuni [4] = experiment: MIC by agar dilution (NCCLS M7-A4), 5% sheep blood, microaerophilic 48 h; format: cell-based
Campylobacter jejuni [5] = experiment: MIC by agar dilution (NCCLS M7-A4), 288 enteropathogenic isolates, gemifloxacin and 15 other antimicrobials; conditions: Campylobacter jejuni
Yersinia enterocolitica [6] = experiment: MIC by agar dilution (NCCLS M7-A4), 288 enteropathogenic isolates, eight quinolones; format: cell-based
Yersinia enterocolitica [7] = experiment: MIC by agar dilution (NCCLS M7-A4), 288 enteropathogenic isolates, gemifloxacin and 15 other antimicrobials; format: cell-based; conditions: Yersinia enterocolitica
Salmonella spp. [8] = experiment: MIC by agar dilution (NCCLS M7-A4), 288 enteropathogenic isolates, eight quinolones; format: cell-based
Salmonella spp. [9] = experiment: MIC by agar dilution (NCCLS M7-A4), 288 enteropathogenic isolates, gemifloxacin and 15 other antimicrobials; format: cell-based
Shigella spp. [10] = experiment: MIC by agar dilution (NCCLS M7-A4), 288 enteropathogenic isolates, eight quinolones; format: cell-based
Hafnia alvei [11] = experiment: as above; format: cell-based
Aeromonas spp. [12] = experiment: as above; format: cell-based
[13] = 24 h, read-out: MIC (mg/L) Range

CO/N=C(\C(=O)N[C@@H]1C(=O)N2C(C(=O)[O-])=C(C[N+]3(C)CCCC3)CS[C@H]12)c1csc(N)n1 [Cefepime]
MIC50 (Pseudomonas aeruginosa): 8 µg/mL (≈ 16.6 µM) | MIC90 (Pseudomonas aeruginosa): > 64 µg/mL | MIC50 (Enterobacter spp.; read-out: MIC50): 0.125 µg/mL (≈ 0.26 µM) | MIC90 (Enterobacter spp.; read-out: MIC90): 16 µg/mL (≈ 33.3 µM) | MIC50 (Klebsiella pneumoniae): 0.06 µg/mL (≈ 0.125 µM) | MIC90 (Klebsiella pneumoniae): 8 µg/mL (≈ 16.6 µM) | MIC50 (Acinetobacter spp.): 16 µg/mL (≈ 33.3 µM) | MIC90 (Acinetobacter spp.): 64 µg/mL (≈ 133 µM) | MIC50 (Proteus mirabilis): 0.125 µg/mL (≈ 0.26 µM) | MIC90 (Proteus mirabilis): 8 µg/mL (≈ 16.6 µM)

CCn1cc(C(=O)O)c(=O)c2ccc(C)nc21 [Nalidixic acid, nalidixic acid]
Rates of non-susceptible microorganisms (Aeromonas spp. [1]; Aeromonas spp.): 6% | MIC (Aeromonas spp. [1]; read-out: MIC (mg/L) 50%): 0.12 mg/L (≈ 0.517 µM) | MIC (Aeromonas spp. [1]; read-out: MIC (mg/L) 90%): 0.25 mg/L (≈ 1.08 µM) | MIC (Hafnia alvei [2]; [13]): 1 to 2 mg/L (≈ 4.31 to 8.61 µM) | MIC (Hafnia alvei [2]; read-out: MIC (mg/L) 50%): 2 mg/L (≈ 8.61 µM) | MIC (Hafnia alvei [2]; read-out: MIC (mg/L) 90%): 2 mg/L (≈ 8.61 µM) | MIC (Shigella spp. [3]; [13]): 1 to 2 mg/L (≈ 4.31 to 8.61 µM) | MIC (Shigella spp. [3]; read-out: MIC (mg/L) 50%): 1 mg/L (≈ 4.31 µM) | MIC (Shigella spp. [3]; read-out: MIC (mg/L) 90%): 2 mg/L (≈ 8.61 µM) | Non-susceptibility rate (Campylobacter jejuni [4]; C. jejuni): 69.24% | MIC50 (Campylobacter jejuni [4]; Campylobacter jejuni): > 128 µg/mL | MIC90 (Campylobacter jejuni [4]; Campylobacter jejuni): > 128 µg/mL | % Susceptible (Campylobacter jejuni [4]; Campylobacter jejuni (n=91)): 30.76% | MIC (Campylobacter jejuni [5]; read-out: MIC (mg/L) 50%): > 128 mg/L | MIC (Campylobacter jejuni [5]; read-out: MIC (mg/L) 90%): > 128 mg/L | Non-susceptibility rate (Yersinia enterocolitica [6]; Y. enterocolitica): 4.5% | MIC50 (Yersinia enterocolitica [6]; Yersinia enterocolitica): 2 µg/mL (≈ 8.61 µM) | MIC90 (Yersinia enterocolitica [6]; Yersinia enterocolitica): 2 µg/mL (≈ 8.61 µM) | % Susceptible (Yersinia enterocolitica [6]; Yersinia enterocolitica (n = 22)): 95.5% | Rates of non-susceptible microorganisms (Yersinia enterocolitica [7]): 5% | MIC (Yersinia enterocolitica [7]; read-out: MIC (mg/L) 50%): 2 mg/L (≈ 8.61 µM) | MIC (Yersinia enterocolitica [7]; read-out: MIC (mg/L) 90%): 2 mg/L (≈ 8.61 µM) | MIC (Salmonella spp. [8]): > 128 µg/mL | MIC (Salmonella spp. [8]; Salmonella): > 128 µg/mL | MIC50 (Salmonella spp. [8]; Salmonella): 4 µg/mL (≈ 17.2 µM) | MIC90 (Salmonella spp. [8]; Salmonella): > 128 µg/mL | Non-susceptibility rate (Salmonella spp. [8]; Salmonella spp.): 27% | % Susceptible (Salmonella spp. [8]; Salmonella spp. (n = 106)): 73% | MIC (Salmonella spp. [9]): > 128 mg/L | MIC (Salmonella spp. [9]; S. hadar(2), isolates with MICs for ciprofloxacin ≥[…]): >128 mg/L | MIC (Salmonella spp. [9]; Salmonella): > 128 mg/L | Rates of non-susceptible microorganisms (Salmonella spp. [9]; Salmonella spp.): 27% | MIC (Salmonella spp. [9]; Salmonella, read-out: MIC (mg/L) 50%): 4 mg/L (≈ 17.2 µM) | MIC (Salmonella spp. [9]; Salmonella, read-out: MIC (mg/L) 90%): > 128 mg/L | Non-susceptibility rate (Shigella spp. [10]; Shigella spp.): 0% | % Susceptible (Shigella spp. [10]; Shigella spp. (n = 21)): 100% | MIC50 (Shigella spp. [10]; Shigella spp. (n = 21)): 1 µg/mL (≈ 4.31 µM) | MIC90 (Shigella spp. [10]; Shigella spp. (n = 21)): 2 µg/mL (≈ 8.61 µM) | MIC Range (Shigella spp. [10]; Shigella spp. (n = 21)): 1 to 2 µg/mL | Non-susceptibility rate (Hafnia alvei [11]; H. alvei): 0% | MIC50 (Hafnia alvei [11]; Hafnia alvei): 2 µg/mL (≈ 8.61 µM) | MIC90 (Hafnia alvei [11]; Hafnia alvei): 2 µg/mL (≈ 8.61 µM) | % Susceptible (Hafnia alvei [11]; Hafnia alvei (n = 32)): 100% | MIC Range (Hafnia alvei [11]; Hafnia alvei (n = 32)): 1 to 2 µg/mL | MIC50 (Aeromonas spp. [12]; Aeromonas): 0.12 µg/mL (≈ 0.517 µM) | MIC90 (Aeromonas spp. [12]; Aeromonas): 0.25 µg/mL (≈ 1.08 µM) | Non-susceptibility rate (Aeromonas spp. [12]; Aeromonas spp.): 6.25% and 6.3% | % Susceptible (Aeromonas spp. [12]; Aeromonas spp. (n = 16)): 93.75%
